This passage reports IC50 results from patent publication US9862730B2, “Imidazothiadiazole derivatives as protease activated receptor 4 (PAR4) inhibitors for treating platelet aggregation” (BRISTOL-MYERS SQUIBB COMPANY, priority 2012, dated 2018).

SMILES strings stand for the structures. pIC50: −log10 of the molar value.

By pIC50 is commonly meant the IC50 on a negative log10 scale, so that one unit is a factor of ten.

For the test, the target named is PAR4 (Homo sapiens (Human), UniProt Q96RI0). Nature of the test: FLIPR assay in PAR4-expressing HEK293 cells (PAR4 antagonist activity, calcium mobilization). The class given is cell-based. The conditions noted are these: FLIPR assay as described in Example A. The source says: The FLIPR assay is an exemplary in vitro assay for measuring the activity of the PAR4 antagonists of the present invention. In this assay, intracellular calcium mobilization is induced in PAR4 expressing cells by a PAR4 agonist and calcium mobilization is monitored. See, e.g., Example A.
Chain of PAR4 (Q96RI0 18-385): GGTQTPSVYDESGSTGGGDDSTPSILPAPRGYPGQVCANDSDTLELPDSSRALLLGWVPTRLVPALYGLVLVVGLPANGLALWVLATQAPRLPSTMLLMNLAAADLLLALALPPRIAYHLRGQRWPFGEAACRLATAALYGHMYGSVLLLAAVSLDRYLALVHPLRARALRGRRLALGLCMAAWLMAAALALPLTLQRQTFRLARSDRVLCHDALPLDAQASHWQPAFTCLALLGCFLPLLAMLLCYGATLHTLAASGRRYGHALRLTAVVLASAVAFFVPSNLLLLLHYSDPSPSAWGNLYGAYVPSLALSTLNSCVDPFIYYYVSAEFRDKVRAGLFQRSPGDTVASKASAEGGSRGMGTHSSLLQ
HEK293 cells stably expressing PAR4 were generated by a standard method of transfection of human […] cDNA expression vector or by RAGE technology from Athersys Inc. (Cleveland, Ohio) and selected based on PAR4 protein expression of mRNA expression. […] These cells express endogenous PAR1 and can elicit calcium signal upon stimulation with PAR1 agonist peptide.
Counter screens for agonist activity and PAR1 antagonist activity were also performed. Briefly, HEK293 EBNA PAR4 clone 20664.1J cells were plated 24 hrs. prior to experiment in 384 well, Poly-D-Lysine coated, black, clear bottom plates (Greiner Bio-One, Monroe, N.C.). Cells were plated at 20,000 cells/well in 20 μl growth medium and incubated at 37° C. with 5% CO2 overnight. At time of assay, media was replaced with 40 μl 1× Hank's Buffered Saline Solution (HBSS) (with 10 mM HEPES) and 20 μl test compound also diluted in 1×HBSS buffer was added at various concentrations and 0.67% DMSO final concentration on the FDSS for agonist measurement. The cells were then incubated for 30 minutes at room temperature followed by addition of 20 μl of agonist peptide for antagonist measurement on the FDSS.
As indicated above, the FLIPR assay, an in vitro assay, measures the PAR4 antagonist activity of compounds tested as described in Example A.
On the technique in general: Calcium flux is commonly read through the fluorescence of an indicator in the cells.
`COc1ccc2cc(-c3cn4nc(OC)sc4n3)oc2c1` [Example 71]: the pIC50 is 8.91.

With `CCOc1cccc2cc(-c3cn4nc(CC)sc4n3)oc12` [Example 13, 6-(7-Ethoxybenzofuran-2-yl)-2-ethylimidazo[2,1-b][1,3,4]thiadiazole], the pIC50 is 6.83. For `COc1nn2cc(-c3cc4c(Br)ccc(OC)c4o3)nc2s1` [Example 289], the pIC50 is 7.53.

As to `CSc1nn2cc(-c3nc4ccc(C)cc4s3)nc2s1` [Example 190], the pIC50 was 6.69. Under `CSc1nn2cc(-c3nc4c(N)cccc4o3)nc2s1` [Example 120, 2-(2-(Methylthio)imidazo[2,1-b][1,3,4]thiadiazol-6-yl)benzo[d]oxazol-4-amine] stands 7.31. In the case of `CCc1nn2cc(-c3cc4cccc(O)c4o3)nc2s1` [Example 59], the pIC50 is 6.54.

With `CCOC(=O)CCCOc1cccc2cc(-c3cn4nc(CC)sc4n3)oc12` [Example 60], the pIC50 is 6.21. With `Cc1cccc2cc(-c3cn4nc(C(C)(F)F)sc4n3)oc12` [Example 234], the pIC50 is 6.95.

As to `COc1cc(OCc2cccc(OCc3ccc(F)c(C(F)(F)F)c3)c2)c2cc(-c3cn4nc(OC)sc4n3)oc2c1` [Example 315], the pIC50 was 8.05.

Turning to `COc1cc(OCc2cccc(OCc3cc(C)cc(C)c3)c2)c2cc(-c3cn4nc(OC)sc4n3)oc2c1` [Example 382], the pIC50 is 8.78.

On to `COc1nn2cc(-c3cc4ccc(Cl)cc4o3)nc2s1` [Example 94], for which the pIC50 was 8.45. For `COc1cc(OCc2cccc(OCc3ccc(OC)c(OC)c3)c2)c2cc(-c3cn4nc(OC)sc4n3)oc2c1` [Example 389], the pIC50 is 9.14.

On to `CC(F)(F)c1nn2cc(-c3cc4c(OCc5cccc(OCc6ccccc6)c5)cc(OS(=O)(=O)C(F)(F)F)cc4o3)nc2s1` [Example 422], for which the pIC50 is 6.16. In the case of `CCc1nn2cc(-c3nc4ccc(OC5CCC5)cc4o3)nc2s1` [Example 75] it was 6.53; in that of `COc1cc(OCc2cccc(OCc3c(Cl)cccc3Cl)c2)c2cc(-c3cn4nc(OC)sc4n3)oc2c1` [Example 368], 8.33; in that of `FC(F)C(F)(F)c1nn2cc(-c3cc4ccccc4o3)nc2s1` [Example 208, 6-(Benzofuran-2-yl)-2-(1,1,2,2-tetrafluoroethyl)imidazo[2,1-b][1,3,4]thiadiazole], 6.34. Take `CCc1nn2cc(-c3nc4ccc(OCCC(C)C)cc4o3)nc2s1` [Example 77]: the pIC50 is 5.86. Under `CSc1nn2cc(-c3cc4c(OCc5cccc(OCc6ccccc6)c5)cc(OC(F)F)cc4o3)nc2s1` [Example 424] stands 7.67; under `COc1ccc2c(C)c(-c3cn4nc(SC)sc4n3)oc2c1` [Example 106], 7.86. Under `CC(F)(F)c1nn2cc(-c3nc4c([N+](=O)[O-])cccc4o3)nc2s1` [Example 123, 2-(2-(1,1-Difluoroethyl)imidazo[2,1-b][1,3,4]thiadiazol-6-yl)-4-nitrobenzo[d]oxazole] stands 5.95; under `COc1nn2cc(-c3cc4c(OCc5cccc(OCc6ccccc6)c5)cc(NC(C)=O)cc4o3)nc2s1` [Example 412, N-(4-((3-(Benzyloxy)benzyl)oxy)-2-(2-methoxyimidazo[2,1-b][1,3,4]thiadiazol-6-yl)benzofuran-6-yl)acetamide], 7.14. `CSc1nn2cc(-c3nc4ccc(N)cc4o3)nc2s1` [Example 176]: the pIC50 was 6.15.

Regarding `COc1cc(OC[C@@H]2COC(C)(C)O2)c2cc(-c3cn4nc(OC)sc4n3)oc2c1` [Example 339, (R)-6-(4-((2,2-Dimethyl-1,3-dioxolan-4-yl)methoxy)-6-methoxybenzofuran-2-yl)-2-methoxyimidazo[2,1-b][1,3,4]thiadiazole], the pIC50 was 9.06. Under `COc1nn2cc(-c3cc4cc(Br)c(OC)cc4o3)nc2s1` [Example 278] stands 7.28; under `COc1cc(OCc2cccc(OCc3ccc(Cl)cc3Cl)c2)c2cc(-c3cn4nc(OC)sc4n3)oc2c1` [Example 378], 8.13.

On to `COc1nn2cc(-c3cc4c(C(F)(F)F)cc(C)nc4o3)nc2s1` [Example 305], for which the pIC50 was 7.87. Consider `COc1nn2cc(-c3cc4cccc(OC)c4o3)nc2s1` [Example 35], for which the pIC50 is 8.12. With `CCc1nn2cc(-c3nc4cc(C)cc(C)c4o3)nc2s1` [Example 58], the pIC50 is 6.25. As to `CCc1nn2cc(-c3nc4ccc(OCc5ccncc5)cc4o3)nc2s1` [Example 86], the pIC50 was 5.92. Take `CSc1nn2cc(-c3nc4ccc(OCc5ccncc5)cc4o3)nc2s1` [Example 146]: the pIC50 was 6.04. Turning to `COc1nn2cc(-c3nc4ccc(F)cc4s3)nc2s1` [Example 184, 6-Fluoro-2-(2-methoxyimidazo[2,1-b][1,3,4]thiadiazol-6-yl)benzo[d]thiazole], the pIC50 is 8.26.

Regarding `CSc1nn2cc(-c3cc4ccccc4o3)nc2s1` [Example 1, 6-(Benzofuran-2-yl)-2-(methylthio)imidazo[2,1-b][1,3,4]thiadiazole], the pIC50 was 7.85. For `CSc1nn2cc(-c3cc4c(OCc5ccc(F)cc5)cccc4o3)nc2s1` [Example 249], the pIC50 was 7.71. In the case of `CCc1nn2cc(-c3nc4ccc(OC5CCCCC5)cc4o3)nc2s1` [Example 80] it was 6.16.

For `CC(F)(F)c1nn2cc(-c3cc4ccc(OCc5ccccc5)cc4o3)nc2s1` [Example 241], the pIC50 is 6.54. In the case of `CCOc1cccc2oc(-c3cn4nc(SC)sc4n3)nc12` [Example 158] it was 7.16.

As for `COc1ccc2oc(-c3cn4nc(OC)sc4n3)cc2c1` [Example 93], the pIC50 is 6.65. `CC(F)(F)c1nn2cc(-c3cc4ccc(Cl)cc4o3)nc2s1` [Example 237]: the pIC50 was 7.54. In the case of `CNc1nn2cc(-c3cc4ccccc4o3)nc2s1` [Example 69] it was 6.39; in that of `COc1cc2oc(-c3cn4nc(Br)sc4n3)cc2cc1Cl` [Example 200, 2-Bromo-6-(5-chloro-6-methoxybenzofuran-2-yl)imidazo[2,1-b][1,3,4]thiadiazole], 8.06.

As to `CCCOc1cccc2cc(-c3cn4nc(CC)sc4n3)oc12` [Example 56], the pIC50 was 6.22. Take `CSc1nn2cc(-c3cc4ccc(C)c(C)c4o3)nc2s1` [Example 107]: the pIC50 was 6.47.

As for `CCCOc1ccc2nc(-c3cn4nc(CC)sc4n3)oc2c1` [Example 51], the pIC50 was 6.41.

Regarding `CSc1nn2cc(-c3nc4ccccc4s3)nc2s1` [Example 4, 2-(2-(Methylthio)imidazo[2,1-b][1,3,4]thiadiazol-6-yl)benzo[d]thiazole], the pIC50 is 7.89. Turning to `Cc1ccc2oc(-c3cn4nc(C(C)(F)F)sc4n3)cc2c1` [Example 232], the pIC50 is 6.82. For the compound `CCc1nn2cc(-c3cc4cccc(OCC#N)c4o3)nc2s1` [Example 53], the pIC50 is 6.83.

For the compound `CC(F)(F)c1nn2cc(-c3cc4ccc(F)cc4o3)nc2s1` [Example 231], the pIC50 was 7.65.

For `CSc1nn2cc(-c3nc4c(OCc5cccc(C#N)c5)cccc4o3)nc2s1` [Example 156], the negative logarithm of the IC50 (pIC50) was 5.99. Consider `CSc1nn2cc(-c3cc4ccc(C)cc4o3)nc2s1` [Example 21], for which the pIC50 was 7.66. With `COc1cc(OCc2cccc(OCc3ccc(OCc4ccccc4)c(OC)c3)c2)c2cc(-c3cn4nc(OC)sc4n3)oc2c1` [Example 357], the pIC50 was 8.31.

Consider `COc1cc(OCc2cccc(OCc3ccc(C)c(C)c3)c2)c2cc(-c3cn4nc(OC)sc4n3)oc2c1` [Example 381], for which the pIC50 is 8.56. On to `COc1nn2cc(-c3cc4c(OCc5cccc(C#N)c5)cccc4o3)nc2s1` [Example 281], for which the pIC50 was 5.87. `COc1cc(OCc2cccc(OCc3ccc(F)cc3F)c2)c2cc(-c3cn4nc(OC)sc4n3)oc2c1` [Example 374]: the pIC50 is 8.64. As to `COc1cc(OC)c2cc(-c3cn4nc(Br)sc4n3)oc2c1` [Example 294], the pIC50 is 7.71. In the case of `COc1cc(OCc2cccc(OCc3ccccc3)c2)c2nc(-c3cn4nc(SC)sc4n3)oc2c1` [Example 403], the pIC50 is 9.07. For the compound `CSc1nn2cc(-c3nc4ccc(OC(F)(F)F)cc4s3)nc2s1` [Example 180, 2-(2-(Methylthio)imidazo[2,1-b][1,3,4]thiadiazol-6-yl)-6-(trifluoromethoxy)benzo[d]thiazole], the pIC50 is 6.72. Turning to `COc1cc(Br)cc2cc(-c3cn4nc(Br)sc4n3)oc12` [Example 286], the pIC50 was 6.56. As to `COc1nn2cc(-c3cc4c(F)cccc4o3)nc2s1` [Example 279], the pIC50 was 8.46. Under `CSc1nn2cc(-c3nc4ccc(OCCF)cc4o3)nc2s1` [Example 118, 6-(2-Fluoroethoxy)-2-(2-(methylthio)imidazo[2,1-b][1,3,4]thiadiazol-6-yl)benzo[d]oxazole] stands 6.72; under `CSc1nn2cc(-c3cc4c(OCc5cccnc5)cccc4o3)nc2s1` [Example 216, 2-(Methylthio)-6-(4-(pyridin-3-ylmethoxy)benzofuran-2-yl) imidazo[2,1-b][1,3,4]thiadiazole], 6.32.
